Measured values taken from patent publication US9382204B2, “Inhibitors targeting the DNA-binding domain of human STAT3 for treatment of metastatic cancers” (Indiana University Research and Technology Corporation, priority 2013, dated 2016).

Key:
MDA-MB-231 cells = experiment: Wound-healing migration assay, MDA-MB-231; assay type: cell-based, human; conditions: 24 hours
Method: For wound-healing assay, 1×10^5 cells per well were plated in 6-well plates followed by introduction of a wound and monitoring the healing process of the wound over a 24-hour period. The healing of the wound was determined by measuring the remaining gap between two migrating edges at different times. […] At different times, invading cells were stained with crystal violate and counted.

[1] = system: STAT3 downstream target genes; experiment: Western blot and RT-PCR of STAT3 and its downstream target genes; assay type: cell-based, human
Method: FIG. 10. […] Actin was used as a loading control.
FIG. 11. Effect of inS3-54 on mRNA level of STAT3 downstream target genes. MDA-MB-231 (A) and A549 (B) cells were treated with DMSO control or 20 μM inS3-54 followed by extracting total RNA and real-time PCR analysis.
Quantitative RT-PCR analysis was performed using primers shown in supplemental Table 2 as previously described.

STAT3 [2] = experiment: ChIP assay of STAT3 bound to cyclin D1 promoter; assay type: cell-based, human
Method: ChIP was performed as previously described. Briefly, H1299 cells were treated with 1% formaldehyde for 10 min and lysates of the cells were sonicated to shear DNA to lengths between 200 and 1000 bases, which were then subjected to ChIP using Chromatin Immunoprecipitation Assay Kit (EMD Millipore, Billerica, Mass.) and normal IgG or STAT3 specific antibody (Santa Cruz) according to manufacturer's instructions. The primers for PCR of cyclin D1 promoter are 5′-[…]-3′ SEQ ID NO: 23 (forward) and 5′-[…]-3′ SED ID NO: 24 (reverse).

IMR90 and MCF10A1 cells = experiment: Cytotoxicity sulphorhodamine (SRB) assay, non-cancerous cells
Method: (§1) FIG. 7. […] (A) Level of STAT3 expression and activation. […] Actin was used as a loading control. (B-C) Cytotoxicity assay. […] IC50 of inS3-54 for each cell line was derived using PrismPad program. (D) Apoptosis assay.
(§2) Cytotoxicity of inS3-54 was determined using sulphorhodamine colorimetric assay as described previously (41). Photometric enzyme immunoassay using Cell Death Detection ELISA Plus kit (Roche Diagnostics, Indianapolis, Ind.) was performed for quantitative in-vitro determination of cytoplasmic histone-associated DNA fragments and apoptosis as we previously described.
(§3) Survival, apoptosis, migration, and invasion assays were performed as previously described. Briefly, effect of STAT3 inhibitors on cell survival were analyzed using sulforhodamine B (SRB) assay. Apoptosis induced by STAT3 inhibitors cells were quantified using Cell Death Detection ELISA^PLUS Kit (Roche, Mannheim, Germany) by enzyme-linked immunosorbent assay (ELISA) according to manufacturer's instructions. Wound filling assay was performed by culturing 1×10^5 cells/well in 6-well plates, followed by generating a wound using a pipet tip and continuous culture with photographic recording at different times.

[3] = mouse, in vivo
STAT3 [4] = experiment: STAT3-dependent luciferase reporter assay in transiently transfected H1299 cells; assay type: cell-based, human; conditions: newly synthesized compound
Text: FIG. 1. Schematic diagram and identification of inS3-54 by virtual screening. (A) DNA-STAT3 complex structure (PDB code: 1BG1). […] (B) Luciferase activity assay of MDA-MB-231 cells stably transfected with STAT3-dependent luciferase reporter. (C) Structure of inS3-54. (D) Luciferase activity assay of H1299 cells transiently transfected with STAT3-dependent luciferase reporter. (E) Simulated average complex structure of inS3-54 in the DBD of STAT3. (F & G) Molecular surface of STAT3 (F) and STAT1 (G) complexed with inS3-54 from MD simulation with orientation shown in gold for STAT3 and pink for STAT1. Molecular surface is colored with gray for carbon, blue for nitrogen, red for oxygen and yellow for sulfur. (**p<0.01).
To confirm the activity of the compound using re-supplied material, to eliminate the potential issues associated with the use of a single stable clone harboring the luciferase reporter gene, and to test if inS3-54 is cell line specific, we tested newly synthesized inS3-54 using H1299 cells transiently transfected with the STAT3-driven luciferase reporter plasmid. […] Thus, the activity of inS3-54 is not derived from potential contamination in the original supply and it is not dependent on cell line specific or transfection method used.

MDA-MB-468 = experiment: PARP cleavage in MDA-MB-468 cells; assay type: cell-based, human; conditions: 72-hour treatment, data not shown
[5] = system: A549 and MDA-MB-231 cells; experiment: Luminescence-based glutathione alkylation assay (GSH-Glo); assay type: cell-based, human; conditions: 20 μM inS3-54 48 hours, 15 mM iodoacetamide 30 minutes
Text: FIG. 5. Effect of inS3-54 glutathione level. […] (***p<0.001).
To further eliminate the possibility that inS3-54 has alkylating activity, we performed luminescence-based glutathione alkylation assay.

[6] = system: hematopoietic progenitor cells from STAT3−/− mice; experiment: Hematopoietic progenitor cell colony formation assay, STAT3−/− mice; assay type: cell-based, mouse; conditions: 20 μM
Method: Hematopoietic progenitor cell colony formation assay was performed as previously described. Briefly, 5×10^4 STAT3^+/+ and STAT3^−/− mouse (C57BL/6) bone marrow cells were stimulated in vitro with 1 U/ml recombinant human erythropoietin, 50 ng/ml recombinant mouse stem cell factor and 5% vol/vol pokeweed mitogen mouse spleen cell conditioned medium, and 0.1 mM hemin in the presence of either IMDM medium, IMDM medium plus inS3-54 analogues or DMSO vehicle control. Colonies were scored seven days after incubation at 37° C. with 5% CO2 and lowered (5%) 02.

[7] = Cytotoxicity sulphorhodamine (SRB) assay, non-cancerous cells; conditions: human, IMR90 lung fibroblast and MCF10A1 mammary epithelial cells
Method: as §1, §2, §3

STAT3 [8] = experiment: STAT3 dimerization (STAT3c non-reducing PAGE, HA/FLAG co-immunoprecipitation) in H1299 cells; assay type: cell-based, human; conditions: 20 μM
Text: To eliminate the possibility that inS3-54 works by off-targeting to the SH2 domain, we tested if inS3-54 inhibits STAT3 dimerization using FLAG-STAT3c, which forms spontaneous homo-dimers via formation of intermolecular disulfide bond.
However, inS3-54 had no effect on production of dimeric STAT3c separated using non-reducing SDS-PAGE or non-denaturing PAGE (FIG. 6B) while S3I-201, a STAT3 inhibitor that binds to the SH2 domain, inhibited STAT3c dimerization (FIG. 6B). To confirm this observation, we performed a co-immunoprecipitation analysis of HA and FLAG-tagged STAT3.

[9] = A549 and MDA-MB-231 cells, Western blot

| Structure (SMILES) | wounds healed (MDA-MB-231 cells; 5 μM) [%] | wounds healed (MDA-MB-231 cells; 10 μM) [%] | expression of STAT3 downstream target genes at protein level (cyclin D1, survivin, VEGF, MMP-2, MMP-9, twist) [1, 9] | STAT3 binding to the promoter of cyclin D1 gene (ChIP) (STAT3 [2]) | cytotoxicity to noncancerous cells (IMR90 and MCF10A1 cells) | dose tolerated by mice [3] | cytotoxicity to lung fibroblast (IMR90 and MCF10A1 cells) | IC50 (IMR90 and MCF10A1 cells; read-out: IC50, noncancerous lung fibroblast, lung fibroblast (IMR90)) [µM] | STAT3-dependent luciferase reporter expression (STAT3 [4]) | cleavage of PARP (MDA-MB-468) | wounds healed (MDA-MB-231 cells; 20 μM) [%] | glutathione level [5] | mRNA level of STAT3 downstream targets ([1]; 20 μM, MDA-MB-231 and A549 cells, real-time PCR) | level of total STAT3 or basal level of Tyr705-phosphorylated STAT3 [1, 9] | colony formation of hematopoietic progenitor cells from STAT3−/− mice [6] | IC50 at 72 h [7] [µM] | production of dimeric STAT3c (STAT3 [8]; 24 hrs, non-reducing SDS-PAGE or non-denaturing PAGE) | co-immunoprecipitation between HA- and FLAG-tagged STAT3 (STAT3 [8]; H1299 cells) |
| --- | --- | --- | --- | --- | --- | --- | --- | --- | --- | --- | --- | --- | --- | --- | --- | --- | --- | --- |
| O=C1C(=Cc2ccc(Cl)cc2)C=C(c2ccccc2)N1c1ccc(O)cc1 [Compound A18] | 76 | 39 | decreased | eliminated | little cytotoxicity | up to 200 mg/kg |  |  |  |  |  |  |  |  |  |  |  |  |
| CC(=O)Nc1ccc(N2C(=O)C(=Cc3ccc(Cl)cc3)C=C2c2ccccc2)cc1 [Compound A26] |  |  |  |  |  |  | high level cytotoxicity | 4 |  |  |  |  |  |  |  |  |  |  |
| O=C(O)c1ccc(N2C(=O)/C(=C/c3ccc([N+](=O)[O-])cc3)C=C2c2ccccc2)cc1 [inS3-54, 4-[(3E)-3-[(4-nitrophenyl)-methylidene]-2-oxo-5-phenylpyrrol-1-yl]benzoic acid] |  | 77 | decreased |  |  |  |  |  | significantly inhibits | induced cleavage of PARP | 29 | did not significantly reduce | inhibited | had no effect | further reduced | 10 to 12 | had no effect | had no effect |
